According to patent publication US12433860B2, “Treatment of multiple sclerosis comprising DHODH inhibitors” (Immunic AG, priority 2021, dated 2025):
“And” between values parts separate entries of the source, which are not always exact repeats. Equal entries are not always repeated. Structures can show the parent of a compound that is named as a salt.

Tests used:
[1] = system: patients with RRMS and evidence of active disease; test: EMPhASIS Cohort 2 interim analysis: MRI lesions up to Week 12; type: in vivo, human; details: for Cumulative number of New Gd+ lesions up to Week 12, Mean / Cumulative number of CUA MRI lesions up to Week 12, Mean / Patients without CUA MRI lesions over 12 weeks / Patients without New Gd+ lesions over 12 weeks: mFAS; for Cumulative number of New Gd+ lesions up to Week 12, Mean: placebo 3.5; for Cumulative number of CUA MRI lesions up to Week 12, Mean: placebo 4.4; for Patients without CUA MRI lesions over 12 weeks: placebo 41.4; for Patients without CUA MRI lesions over 12 weeks / Patients without New Gd+ lesions over 12 weeks: listed as IMU-838; for Patients without New Gd+ lesions over 12 weeks: placebo 49.3
[2] = system: patients with relapsing-remitting multiple sclerosis; details: in vivo
Method: Adverse events were assessed at screening, baseline, day 7, and weeks 6, 12, 18, and 24 and all unscheduled clinic visits. Routine clinical chemistries, haematology, liver function tests, and urinalysis were collected at baseline, day 7, and weeks 6, 12, 18, and 24. Vital signs and electrocardiogramere conducted at screening and regularly scheduled intervals. Adverse events of special interest included: red blood cells in urine, haematuria, and retroperitoneal colicky pain with suspected or confirmed nephrolithiasis.
The intention-to-treat population was defined as all randomized patients who received at least one dose of placebo or vidofludimus calcium and were analyzed by the groups to which they were randomized. The safety population included all randomized patients who received at least one dose of placebo or vidofludimus calcium and was analyzed by the treatment assigned. The per-protocol population was defined as all randomized patients receiving at least one dose of placebo or vidofludimus calcium and no violations of major protocol criteria during treatment. The modified intention-to-treat population was defined as all randomized patients receiving at least one dose of placebo or vidofludimus calcium and having all MRI scans available for analysis.

[3] = in vivo; cited from earlier work
[4] = system: secretion of interleukin (IL)-17 and IFNγ; details: in vitro; cited from earlier work
[5] = system: T-lymphocyte proliferation; details: in vitro; cited from earlier work
[6] = system: patients with relapsing-remitting multiple sclerosis; test: EMPhASIS phase 2 trial Cohort 1: MRI lesions up to 24 weeks; type: in vivo, human
Method: Study design and participants: […] Eligible patients were randomly assigned in a 1:1:1 ratio by an interactive web response system to receive once-daily vidofludimus calcium (30 mg or 45 mg) or placebo over a 24 week period. Procedures: Participants took vidofludimus calcium (30 mg or 45 mg) or placebo once daily in the morning in a fasted state (before breakfast) for 24 weeks. To minimize the risk of changes to uric acid during the first seven days of dosing (induction phase), the assigned dose (containing vidofludimus calcium 15 mg, vidofludimus calcium 22.5 mg or placebo) was taken days 0-6 and then the full dose thereafter (maintenance phase). Participants underwent standardized brain MRI scans at baseline and every 6 weeks after the first day of dosing until week 24. MRI scans were centrally analyzed by a blinded and independent MRI center. […] In the case of suspected or protocol-defined confirmed relapse, corticosteroid treatment was provided at the discretion of the investigator. Pharmacokinetic and pharmacodynamic measurements were also collected. Outcomes: The primary endpoint was the difference in the cumulative number of combined unique active (CUA) lesions up to week 24 between vidofludimus calcium 45 mg and placebo in the intention-to-treat population (i.e., weeks 6 to 24). The key secondary was the same outcome between vidofludimus calcium 30 mg and placebo. A sensitivity analysis of the primary endpoint and key secondary endpoint was done in the per-protocol population and the modified intention-to-treat population. In addition, prespecified subgroup analyses of the primary endpoint and key secondary endpoint in the intention-to-treat population were done based on baseline demographics (gender, age, weight, country), MRI characteristics (gadolinium-enhancing lesions strata) and clinical characteristics (EDSS score, duration of disease and relapse history). […] Other secondary endpoints included: the difference in the cumulative number of combined unique active lesions up to week 24 between vidofludimus calcium 45 mg and vidofludimus calcium 30 mg; number or cumulative number of gadolinium-enhancing, T1, or T2 lesions up to 24 weeks; annualized relapse rate from baseline until week 24; proportion of relapse-free patients up to week 24; time-to-first relapse; change in EDSS score from baseline; proportion of patients with EDSS score progression; brain atrophy and other MRI endpoints; and safety and tolerability as assessed by the investigators. Annualized relapse rate was defined as the total number of confirmed relapses divided by the real exposure time in years assessed over the time during the double-blind treatment period. EDSS progression was defined as an increase compared to baseline of at least 1.0 point for patients with a baseline EDSS score of 1.0 to 4.0 or of at least 1.5 points for patients with a baseline EDSS score of 0. Vidofludimus calcium trough concentrations (weeks 6 and 24) were used to assess the correlation between pharmacokinetics and MRI-based assessments. The effects of vidofludimus calcium on serum neurofilament (baseline and week 24) were also analyzed. Statistical analysis: The primary and secondary efficacy endpoints were analyzed using a generalized linear model with a negative binomial distribution and a logarithmic link function. Independent effects included in the model were: treatment group; baseline volume of T2 lesions; MRI field strength; and baseline number of gadolinium-enhancing lesions. The natural log transformation of the time from the first dose to the date of the last MRI assessment was included as an offset term to account for different lengths of treatment.

[7] = system: patients with relapsing-remitting multiple sclerosis; test: EMPhASIS Cohort 1: annualized relapse rate and time-to-first relapse; type: in vivo, human; details: for adjusted mean annualized relapse rate: baseline until week 24
Method: Other secondary endpoints included: the difference in the cumulative number of combined unique active lesions up to week 24 between vidofludimus calcium 45 mg and vidofludimus calcium 30 mg; number or cumulative number of gadolinium-enhancing, T1, or T2 lesions up to 24 weeks; annualized relapse rate from baseline until week 24; proportion of relapse-free patients up to week 24; time-to-first relapse; change in EDSS score from baseline; proportion of patients with EDSS score progression; brain atrophy and other MRI endpoints; and safety and tolerability as assessed by the investigators. Annualized relapse rate was defined as the total number of confirmed relapses divided by the real exposure time in years assessed over the time during the double-blind treatment period. EDSS progression was defined as an increase compared to baseline of at least 1.0 point for patients with a baseline EDSS score of 1.0 to 4.0 or of at least 1.5 points for patients with a baseline EDSS score of 0. Vidofludimus calcium trough concentrations (weeks 6 and 24) were used to assess the correlation between pharmacokinetics and MRI-based assessments. The effects of vidofludimus calcium on serum neurofilament (baseline and week 24) were also analyzed. All other secondary efficacy analyses were reported using descriptive statistics and were considered exploratory. The mean number or cumulative number of gadolinium-enhancing (Gd+), T1, or T2 lesions were summarized descriptively and analyzed with a generalized linear model as described earlier but adjusted for MRI field strength and baseline number of gadolinium-enhancing lesions only. Annualized relapse rate was compared between treatment groups and between the pooled vidofludimus calcium groups and placebo using a generalized linear model adjusted for baseline number of gadolinium-enhancing lesions, which included the offset term for real exposure time. Time-to-first relapse up to 24 weeks was analyzed using a Cox proportional hazards model, with covariates for treatment group and baseline gadolinium-enhancing lesions strata. The proportion of patients free of relapse was estimated using the Kaplan-Meier method. Statistical analyses were done using SAS version 9.4 (SAS Institute, Cary, NC, USA).

human DHODH = human DHODH (Homo sapiens, UniProt Q02127); details: cited from earlier work
Chain of human DHODH (Q02127 whole entry): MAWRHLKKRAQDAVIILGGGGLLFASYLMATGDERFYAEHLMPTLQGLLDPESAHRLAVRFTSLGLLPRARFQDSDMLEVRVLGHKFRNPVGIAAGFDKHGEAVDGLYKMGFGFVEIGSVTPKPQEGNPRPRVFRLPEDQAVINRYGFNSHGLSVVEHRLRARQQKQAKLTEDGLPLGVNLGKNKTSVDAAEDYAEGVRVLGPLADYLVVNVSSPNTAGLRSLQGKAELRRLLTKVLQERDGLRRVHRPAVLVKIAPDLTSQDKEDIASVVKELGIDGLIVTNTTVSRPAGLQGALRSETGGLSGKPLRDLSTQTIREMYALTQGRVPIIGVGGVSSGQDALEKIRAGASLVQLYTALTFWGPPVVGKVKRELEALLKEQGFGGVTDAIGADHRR

SMILES: COc1cccc(-c2ccc(NC(=O)C3=C(C(=O)O)CCC3)c(F)c2)c1 [vidofludimus calcium, 1-cyclopentene-1-carboxylic acid, 2-(((3-fluoro-3′-methoxy(1,1′-biphenyl)-4-yl)amino)carbonyl)-, calcium salt (2:1)]
- suppression of Gd+ lesions at Week 12 compared with placebo ([1]; 10 mg): 40%
- Cumulative number of New Gd+ lesions up to Week 12, Mean ([1]; 10 mg (C2)): 2.0
- suppression of CUA lesions at Week 12 compared with placebo ([1]; 30 mg): 68%
- suppression of Gd+ lesions at Week 12 compared with placebo ([1]; 30 mg): 66%
- Cumulative number of New Gd+ lesions up to Week 12, Mean ([1]; 30 mg (C1)): 1.2
- Cumulative number of CUA MRI lesions up to Week 12, Mean ([1]; 30 mg (C1)): 1.4
- Patients without CUA MRI lesions over 12 weeks ([1]; 30 mg (C1)): 62% and 61.5%
- Patients without New Gd+ lesions over 12 weeks ([1]; 30 mg (C1)): 66% and 66.2%
- suppression of CUA lesions at Week 12 compared with placebo ([1]; 45 mg): 75%
- suppression of Gd+ lesions at Week 12 compared with placebo ([1]; 45 mg): 74%
- Cumulative number of New Gd+ lesions up to Week 12, Mean ([1]; 45 mg (C1)): 0.9
- Cumulative number of CUA MRI lesions up to Week 12, Mean ([1]; 45 mg (C1)): 1.1
- Patients without CUA MRI lesions over 12 weeks ([1]; 45 mg (C1)): 55% and 54.5%
- Patients without New Gd+ lesions over 12 weeks ([1]; 45 mg (C1)): 61% and 60.6%
- deaths during the trial [2]: No deaths occurred
- half-life [3]: approximately 30 h
- secretion of interleukin (IL)-17 and IFNγ [4]: inhibited
- T-lymphocyte proliferation [5]: inhibited
- suppression of MRI activity ([6]; 30 mg dose, after 24-weeks of treatment, rrMS): 70%
- cumulative number of new gadolinium-enhancing lesions at week 24 ([6]; 30 mg once daily): 4.5 (95% Cl 2.7-7.7)
- Cumulative CUA lesions up to 24 weeks, adjusted mean (95% CI) ([6]; 30 mg once daily, key secondary endpoint analysis (30 mg vs placebo), intention-to-treat): 4.0 (2.2-7.2)
- Cumulative CUA lesions up to 24 weeks, adjusted mean (95% CI) ([6]; 30 mg once daily, secondary endpoint analysis (45 mg vs 30 mg), intention-to-treat): 4.2 (2.5-7.1)
- Rate ratio, cumulative CUA lesions up to 24 weeks ([6]; 30 mg vs placebo, intention-to-treat): 0.30
- cumulative number of new gadolinium-enhancing lesions at week 24 ([6]; 45 mg once daily): 4.0 (95% Cl 2.1-7.8)
- Cumulative CUA lesions up to 24 weeks, adjusted mean (95% CI) ([6]; 45 mg once daily, primary endpoint analysis (45 mg vs placebo), intention-to-treat): 2.4 (1.1-4.9)
- Cumulative CUA lesions up to 24 weeks, adjusted mean (95% CI) ([6]; 45 mg once daily, secondary endpoint analysis (45 mg vs 30 mg), intention-to-treat): 4.4 (2.4-8.1)
- Rate ratio, cumulative CUA lesions up to 24 weeks ([6]; 45 mg vs placebo, intention-to-treat): 0.38
- Rate ratio, cumulative CUA lesions up to 24 weeks ([6]; secondary endpoint (45 mg vs 30 mg), printed in the 30 mg line): 0.96
- adjusted mean annualized relapse rate ([7]; 30 mg once daily): 0.39 (95% Cl 0.22-0.69)
- hazard ratio for relapse up to 24 weeks ([7]; 30 mg vs placebo): 0.58 (95% Cl: 0.26-1.29)
- rate ratio, annualized relapse rate ([7]; 30 mg vs placebo): 0.72 (95% Cl 0.34-1.55)
- adjusted mean annualized relapse rate ([7]; 45 mg once daily): 0.48 (95% Cl 0.28-0.82)
- hazard ratio for relapse up to 24 weeks ([7]; 45 mg vs placebo): 0.78 (95% Cl: 0.37-1.59)
- rate ratio, annualized relapse rate ([7]; 45 mg vs placebo): 0.90 (95% Cl 0.44-1.86)
- potency against human DHODH (human DHODH): submicromolar potency
